Laboratory results taken from patent US9809597B2, “Ganciclovir derivatives for modulating innate and adaptive immunity and for use in immunotherapy” (The Board of Trustees of the Leland Stanford Junior …, priority 2015, dated 2017).

Key:
[1] = tested on: BV-2 cells; assay: RT-PCR for CXCL10 and IFNβ transcripts in BV-2 cells; type: cell-based, mouse; conditions: for induction of CXCL10 mRNA / induction of IFNβ transcript: 200 μM; for induction of CXCL10 mRNA on neutralization of IFNβ with an antibody: 200 μM with anti-IFNβ antibody, 4 hours; for induction of IFNβ transcript: microglia (BV-2, primary)
Experimental: (§1) BV-2 mouse microglia cells were grown in DMEM+10% FBS and THP-1 human monocyte cells were grown in RPMI-40+10% FBS+0.05 mM β-mercaptoethanol at 37° C., 5% CO2. Adherent cells were split using 1×TrypLE (Gibco). For cellular assays, cells were treated with the following concentrations of drugs as indicated in the DMEM without serum: 100-200 μM ganciclovir, 10 ng/ml IFNγ (R&D systems), 100 ng/ml LPS (Sigma-Aldrich), 1-10 μM Fludarabine (Selleckchem), 1 μM Ruxolitinib (Selleckchem), 1 μM TG-101348 (Selleckchem), 1 μM Amlexanox (Tocris bioscience) unless otherwise noted. All experiments were run in triplicates and replicated at least 3 times with cell lines and at least twice with primary microglia. Average data are shown for cell lines and representative data are shown for primary cells. Secreted signaling proteins were measured in supernatants from cultured cells stimulated with GCV and conditioned for 24 hours in the absence of serum using two independent Luminex arrays (Human Immune Monitoring Center, Stanford and Eve technologies, Canada). Nitrite assay was performed on conditioned culture supernatants of cells stimulated with drugs for 24 hours using the Griess Reagent System (Promega) according to manufacturer's instructions. To assess cellular viability, cell confluence was measured using an automated microscope (Cellavista; Roche).
(§2) RNA was isolated from cells using RNeasy mini kit from Qiagen. DNased RNA was converted to cDNA using SuperScript III reverse transcriptase kit (Life technologies). The cDNA was used to quantify specific targets using SYBR green in Roche Lightcycler 480. ΔΔCt values normalized against the experimental control to determine fold change in mRNA for each sample compared to untreated or vehicle treated control. β-actin or Ubc or both were used as housekeeping genes. Primer sequences were obtained from PrimerBank. Fold change is shown compared to the vehicle treated or untreated cells, unless otherwise noted.

[2] = tested on: IFNγ/LPS stimulated BV-2 microglia; assay: Nitrite assay (Griess) on culture supernatants; type: cell-based, mouse; conditions: 24 hours
Experimental: as §1

[3] = tested on: BV-2 microglia; assay: siRNA knockdown (STING, IRF3, Stat1, Jak2), then RT-PCR for CXCL10; type: cell-based, mouse; conditions: for CXCL10 or IFNβ mRNA expression after siRNA knockdown of Stat1 and Jak2 or lack of Stat1: BV-2 cells (siRNA) or Stat1 knockout primary microglia, 200 μM
Experimental: Smartpool siRNAs against mouse targets were bought from Dharmacon and transfected in microglia cells using Viromer Blue from Lipocalyx at a concentration of 50 nM according to manufacturer's instructions. Drugs were added cells after 24 hours of transfection and assays done 24 hours after addition of drugs.
as §2

[4] = tested on: BV-2 and primary microglia stimulated with IFNγ and LPS; assay: RT-PCR of inflammatory transcripts in IFNγ/LPS stimulated microglia; type: cell-based, mouse; conditions: IFNγ/LPS stimulated BV-2 microglia, 200 μM, 24 hours
Experimental: BV-2 mouse microglia cells were grown in DMEM+10% FBS and THP-1 human monocyte cells were grown in RPMI-40+10% FBS+0.05 mM β-mercaptoethanol at 37° C., 5% CO2. Adherent cells were split using 1×TrypLE (Gibco). For cellular assays, cells were treated with the following concentrations of drugs as indicated in the DMEM without serum: 100-200 μM ganciclovir, 10 ng/ml IFNγ (R&D systems), 100 ng/ml LPS (Sigma-Aldrich), 1-10 μM Fludarabine (Selleckchem), 1 μM Ruxolitinib (Selleckchem), 1 μM TG-101348 (Selleckchem), 1 μM Amlexanox (Tocris bioscience) unless otherwise noted. All experiments were run in triplicates and replicated at least 3 times with cell lines and at least twice with primary microglia. Average data are shown for cell lines and representative data are shown for primary cells. Secreted signaling proteins were measured in supernatants from cultured cells stimulated with GCV and conditioned for 24 hours in the absence of serum using two independent Luminex arrays (Human Immune Monitoring Center, Stanford and Eve technologies, Canada). Nitrite assay was performed on conditioned culture supernatants of cells stimulated with drugs for 24 hours using the Griess Reagent System (Promega) according to manufacturer's instructions. To assess cellular viability, cell confluence was measured using an automated microscope (Cellavista; Roche). Mice were housed and bred according to the Institutional Animal Care and Use Committee guidelines. Primary microglia and astrocytes were isolated from P0-P3 C57BL/6 mouse pups. Cortices from pups were isolated, meninges removed and tissue was dissociated using a 25-gauge needle. Two cortices were plated on each poly-L-lysine coated T-75 flasks in DMEM/F12+10% FBS+1% penicillin/streptomycin. Microglia and astrocyte co-cultures were maintained for 3 weeks, after which microglia were isolated using CD11b magnetic beads (Miltenyi Biotec) according to the manufacturer's instructions. Isolated microglia were allowed to recover for 1-2 days and processed for cellular assays described above. RNA was isolated from cells using RNeasy mini kit from Qiagen. […] was converted to cDNA using SuperScript III reverse transcriptase kit (Life technologies). The cDNA was used to quantify specific targets using SYBR green in Roche Lightcycler 480. ΔΔCt values normalized against the experimental control to determine fold change in mRNA for each sample compared to untreated or vehicle treated control. β-actin or Ubc or both were used as housekeeping genes. Primer sequences were obtained from PrimerBank. Fold change is shown compared to the vehicle treated or untreated cells, unless otherwise noted.

[5] = tested on: primary microglia; assay: RT-PCR for CXCL10 and IFNβ transcripts in primary microglia (wildtype, tk KO, STING^gt/gt); type: cell-based, mouse; conditions: 200 μM, 6 hours; for CXCL10 mRNA in microglia from tk1 knockout mice: adult tk1 knockout primary microglia; for induction of CXCL10 mRNA in STING^gt/gt primary microglia / induction of IFNβ mRNA in STING^gt/gt primary microglia: primary microglia lacking functional STING
Experimental: Mice were housed and bred according to the Institutional Animal Care and Use Committee guidelines. Primary microglia and astrocytes were isolated from P0-P3 C57BL/6 mouse pups. Cortices from pups were isolated, meninges removed and tissue was dissociated using a 25-gauge needle. Two cortices were plated on each poly-L-lysine coated T-75 flasks in DMEM/F12+10% FBS+1% penicillin/streptomycin. Microglia and astrocyte co-cultures were maintained for 3 weeks, after which microglia were isolated using CD11b magnetic beads (Miltenyi Biotec) according to the manufacturer's instructions. Isolated microglia were allowed to recover for 1-2 days and processed for cellular assays described above.
For tk KO experiments only, microglia were isolated from adult mouse brains using the neural dissociation kit (Miltenyi Biotec) according to manufacturer's protocol followed by CD11b magnetic bead enrichment. Isolated cells were cultured for 3-4 days before the experiment.
as §2

[6] = tested on: THP-1 human monocyte cells; assay: RT-PCR for CXCL10 in THP-1 cells; type: cell-based; conditions: 200 μM, 8-24 hours
Experimental: as §1, with “Roche). […]” for “Roche).”

[7] = BV-2 microglia, siRNA 24 hours, then 200 μM for 24 hours

NC(=O)c1ncn([C@@H]2O[C@H](CO)[C@@H](O)[C@H]2O)n1 [Ribavirin]
induction of CXCL10 mRNA ([1]; BV-2 cells, 24 hours): failed to induce

NC1=Nc2c(ncn2COC(CO)CO)C(OCCCSSCCCOC2NC(N)=Nc3c2ncn3COC(CO)CO)N1 (centres unmarked) [thiol-GCV, 2-[(2-Amino-6-{3-[3-(2-amino-9-{[2-hydroxy-1-(hydroxymethyl)ethoxy]methyl}-6,9-dihydro-1H-purin-6-yloxy)propyldithio]propoxy}-6,9-dihydro-1H-purin-9-yl)methoxy]-1,3-propanediol]
induction of CXCL10 mRNA ([1]; BV-2 cells, 24 hours): increased potency

Nc1ccn(C[C@@H](CO)OCP(=O)(O)O)c(=O)n1 [Cidofovir]
induction of CXCL10 mRNA ([1]; BV-2 cells, 24 hours): failed to induce

O=C(O)P(=O)(O)O [Foscarnet]
induction of CXCL10 mRNA ([1]; BV-2 cells, 24 hours): failed to induce

Nc1nc2c(ncn2CCC(CO)CO)c(=O)[nH]1 [Penciclovir]
induction of CXCL10 mRNA ([1]; BV-2 cells, 24 hours): failed to induce

NC1=Nc2c(ncn2COC(CO)CO)C(OCCOCCOCCOCCO)N1 (centres unmarked) [monoGCV, 2-{[2-Amino-6-(2-{2-[2-(2-hydroxyethoxy)ethoxy]ethoxy}ethoxy)-6,9-dihydro-1H-purin-9-yl]methoxy}-1,3-propanediol]
microglial nitric oxide production (nitrite assay) [2]: potently reduced | induction of CXCL10 mRNA on neutralization of IFNβ with an antibody ([1]; BV-2 cells): partly reduced | CXCL10 or IFNβ mRNA expression after siRNA knockdown of Stat1 and Jak2 or lack of Stat1 [3]: significantly reduced | inflammatory markers (transcripts) [4]: potently reduced | CXCL10 mRNA in microglia from tk1 knockout mice [5]: triggered CXCL10 independent of endogenous tk1 | induction of CXCL10 mRNA in STING^gt/gt primary microglia [5]: failed to induce | induction of IFNβ mRNA in STING^gt/gt primary microglia [5]: failed to induce

NC1=Nc2c(ncn2COC(CO)CO)C(OCCOCCOCCOCCOc2nc(N)nc3c2ncn3COC(CO)CO)N1 (centres unmarked) [diGCV, 2-({2-Amino-6-[2-(2-{2-[2-(2-amino-9-{[2-hydroxy-1-(hydroxymethyl)ethoxy]methyl}-9H-purin-6-yloxy)ethoxy]ethoxy}ethoxy)ethoxy]-6,9-dihydro-1H-purin-9-yl}methoxy)-1,3-propanediol]
microglial nitric oxide production (nitrite assay) [2]: potently reduced | induction of CXCL10 mRNA on neutralization of IFNβ with an antibody ([1]; BV-2 cells): partly reduced | induction of CXCL10 mRNA ([1]; BV-2 cells, 24 hours): increased potency | CXCL10 or IFNβ mRNA expression after siRNA knockdown of Stat1 and Jak2 or lack of Stat1 [3]: significantly reduced | capacity to induce CXCL10 after siRNA knock down of STING [3, 7]: largely abrogated | potential to induce CXCL10 mRNA after siRNA knockdown of IRF3 [3, 7]: inhibited | inflammatory markers (transcripts) [4]: potently reduced | CXCL10 mRNA in microglia from tk1 knockout mice [5]: triggered CXCL10 independent of endogenous tk1 | induction of CXCL10 mRNA in STING^gt/gt primary microglia [5]: failed to induce | induction of IFNβ mRNA in STING^gt/gt primary microglia [5]: failed to induce

CC(C)c1ccc2oc3nc(N)c(C(=O)O)cc3c(=O)c2c1 [Amlexanox]
inhibition of CXCL10 mRNA induction by GCV and diGCV (Tbk1 inhibition) ([1]; BV-2 cells, 1 μM Amlexanox with 200 μM GCV or diGCV, 24 hours): inhibited

Nc1ncnc2c1ncn2[C@@H]1O[C@H](CO)[C@@H](O)[C@@H]1O [Vidarabine]
induction of CXCL10 mRNA ([1]; BV-2 cells, 24 hours): failed to induce

Nc1nc2c(ncn2[C@@H]2O[C@@H]3COP(=O)(O)O[C@H]4[C@@H](O)[C@H](n5cnc6c(=O)[nH]c(N)nc65)O[C@@H]4COP(=O)(O)O[C@H]3[C@H]2O)c(=O)[nH]1 [c-diGMP]
induction of CXCL10 mRNA ([1]; BV-2 cells, 24 hours): strongly induced | induction of IFNβ transcript [1]: strongly induced

Nc1nc2c(ncn2[C@@H]2O[C@H](CO)[C@@H](O)[C@H]2O)c(=O)[nH]1 [guanosine]
induction of CXCL10 mRNA ([1]; BV-2 cells, 24 hours): failed to induce

Cc1cnc(Nc2ccc(OCCN3CCCC3)cc2)nc1Nc1cccc(S(=O)(=O)NC(C)(C)C)c1 [TG101348]
inhibition of CXCL10 production in response to GCV and diGCV ([1]; BV-2 cells, 24 hours, 10 μM Fludarabine or 1 μM Jak inhibitor with 200 μM GCV or diGCV): strongly inhibited | inhibition of CXCL10 production in response to cGAMP ([1]; BV-2 cells, 24 hours, 10 μM Fludarabine or 1 μM Jak inhibitor with 200 μM cGAMP): somewhat less pronounced

Nc1nc2nc[nH]c2c(=O)[nH]1 [guanine]
induction of CXCL10 mRNA ([1]; BV-2 cells, 24 hours): failed to induce

Nc1nc2c(ncn2[C@@H]2O[C@@H]3COP(=O)(O)O[C@H]4[C@@H](O)[C@H](n5cnc6c(N)ncnc65)O[C@@H]4COP(=O)(O)O[C@@H]2[C@@H]3O)c(=O)[nH]1 [cGAMP, cyclic-GAMP]
induction of CXCL10 mRNA on neutralization of IFNβ with an antibody ([1]; BV-2 cells): partly reduced | induction of CXCL10 mRNA ([1]; BV-2 cells, 24 hours): strongly induced | induction of IFNβ transcript [1]: strongly induced | CXCL10 or IFNβ mRNA expression after siRNA knockdown of Stat1 and Jak2 or lack of Stat1 [3]: significantly reduced

Cc1ccc2c(=O)c3cccc(CC(=O)O)c3oc2c1C [DMXAA]
induction of CXCL10 mRNA ([1]; BV-2 cells, 24 hours): strongly induced | induction of IFNβ transcript [1]: strongly induced | induction of CXCL10 mRNA in human monocyte cell line [6]: did not

Nc1nc2c(ncn2COCCO)c(=O)[nH]1 [Acyclovir]
induction of CXCL10 mRNA ([1]; BV-2 cells, 24 hours): failed to induce
